In brackets after ≈: the same amount, converted by molar mass.
Columns and labels:
Format in all cases: cell-based
[1] = system: Epidermophyton floccosum ATCC 52066; assay: Macrodilution broth MIC/MFC test on dermatophytes (Example 4); details: for MIC: Epidermophyton floccosum, ATCC52066, read-out: Minimum Inhibitory Concentration (MIC)
Procedure: (§1) The organisms used included Epidermophyton floccosum ATCC 52066, Trichophyton mentagrophytes ATCC 9533, and Microsporum canis ATCC 36299. The molds were cultured on Oatmeal Agar slants to allow for conidial formation and incubated for 7 days at 25° C. For each mold, 5 ml of sterile 0.85% NaCl was added to each slant, the culture surface was rubbed with a sterile wooden applicator stick, and the suspension was then transferred to a sterile tube. By comparison to the McFarland 0.5 turbidity standard, the suspension was adjusted by adding sterile 0.85% NaCl as necessary. The resulting suspension was c.1×10^8 CFU/ml. Then 300 μl of organism suspension was added to 10 ml of sterile saline, diluting it to c.1×10^6 CFU/ml.
(§2) The Macrodilution broth method was performed using serial two-fold dilutions of RPMI-1640 (Sigma) with L-glutamine but without sodium bicarbonate.
(§3) Six 18×150 tubes of RPMI-1640 were used for each organism tested. Starting with tube 1 containing 20 ml RPMI labeled as 0.250 μl/ml and then tubes 2 through 6 containing 10 ml RPMI labeled as 0.125 μl/ml, 0.06 μl/ml, 0.03 μl/ml, 0.015 μl/ml, and 0.008 μl/ml respectively. • 1. 26 μl of each product of Examples 1-3 was added to 1000 μl DMSO. The final concentration of DMSO is kept below 1%. • 2. 200 μl of the sample dilution (26 μl/ml) was added to tube 1 (20 ml of RPMI-1640) making an initial concentration of 0.250 μl/ml. • 3. A serial dilution was performed, pipetting 10 ml from tube 1 to tube 2; continuing the dilution to tube 6.
(§4) For the Clotrimazole, Mycelex® and Ciclopirox Olamine, ten 18×150 tubes of RPMI-1640 were used for each organism tested. Starting with tube 1 containing 20 ml RPMI labeled 16 μg/ml and then tubes 2 through 10 containing 10 ml RPMI labeled as 8.0 μg/ml, 4.0 μg/ml, 2.0 μg/ml, 1.0 μg/ml, 0.50 μg/ml, 0.25 μg/ml, 0.125 μg/ml, 0.06 μg/ml and 0.03 μg/ml respectively. • 1. 160 mg of active ingredient was added to 100 ml DMSO. • 2. 200 μl of the sample dilution (1600 μg/ml) was added to tube 1 (20 ml of RPMI-1640) making an initial concentration of 16 μg/ml. • 3. A serial dilution was performed, pipetting 10 ml from tube 1 to tube 2; continuing the dilution to tube 10. Inoculation and Incubation
(§5) Once the tubes were arranged according to product, concentration and mold type, 300 μl of appropriate mold inoculum was added to each tube and the tubes were then placed in an incubator at 35° C. along with a purity plate for inoculum verification for each mold. The final mold inoculum level was c.1×10^4 CFU/ml. As controls, one tube with 10 ml RPMI was used for the “Negative Control”, and 3 tubes with 10 ml RPMI plus 300 μl mold inoculum were used for the positive controls (one for each mold).
(§6) Final results were recorded after 7 days. Growth (G) was noted when there was full growth visible (i.e. the tube appeared as cloudy as the positive control tube). Partial activity (P) was recorded when the broth in the tube was less turbid than the positive control tube. No growth (I) was recorded when there was total inhibition and the broth in the tube appeared clear (in comparison with the negative control tube).
(§7) The MIC measures fungistatic activity as the lowest concentration that will inhibit growth of the mold. […] The MIC for an azole is the lowest concentration capable of inhibiting 80% growth, which would be a result of partial inhibition (P), one dilution below full inhibition.
(§8) The MFC measures the lowest concentration of the test agent that will kill the fungi. The fungicidal activity of the products was determined by subculturing 20 μl from tubes with no visible growth onto properly labeled SDA plates. Also 20 μl from the last tube with growth and 20 μl from the positive control tube were subcultured as controls. All plates were incubated at 25° C. for 14 days. The MFC was recorded as the lowest concentration showing no growth or <3 colonies of growth, which equals 99-99.5% killing activity.

[2] = system: Microsporum canis ATCC 36299; assay: as above; details: for MIC: Microsporum canis, ATCC36299, read-out: Minimum Inhibitory Concentration (MIC)
Procedure: as §1, §2, §3, §4, §5, §6, §7, §8

[3] = system: Trichophyton mentagrophytes ATCC 9533; assay: as above; details: for MIC: Trichophyton mentagrophytes, ATCC9533, read-out: Minimum Inhibitory Concentration (MIC)
Procedure: as §1, §2, §3, §4, §5, §6, §7, §8

[4] = system: all organisms (Epidermophyton floccosum, Trichophyton mentagrophytes, Microsporum canis); assay: Macrodilution broth MIC/MFC, all dermatophytes tested (Example 4); details: for MIC: all dermatophytes
Procedure: as §1, §2, §3, §4, §5, §6, §7, §8

Structure (SMILES) | growth score, MIC test ([1]; 8.0 μg/ml) | growth score, MIC test ([1]; 16.0 μg/ml) | MIC [1] | growth score, MIC test ([2]; 8.0 μg/ml) | growth score, MIC test ([2]; 16.0 μg/ml) | MIC [2] | growth score, MIC test ([3]; 16.0 μg/ml) | MIC [3] | MIC to Inhibit all organisms [4] | concentration at which still unable to kill the dermatophytes (MFC) [4] | fungistatic or fungicidal activity [4] | MIC [4] | other results
Cc1cc(C2CCCCC2)n(O)c(=O)c1 [Ciclopirox Olamine] | I | I | 8 µg/mL (≈ 38.6 µM) | I | I | 4 µg/mL (≈ 19.3 µM) | I | 16 µg/mL (≈ 77.2 µM) | 0.0016% | greater than 32 μg/ml | fungistatic not fungicidal | 16 µg/mL (≈ 77.2 µM) | –
Clc1ccccc1C(c1ccccc1)(c1ccccc1)n1ccnc1 [Clotrimazole] | I | I | 0.06 µg/mL (≈ 0.174 µM) | I | I | 0.06 µg/mL (≈ 0.174 µM) | I | 0.06 µg/mL (≈ 0.174 µM) | 0.000006% | greater than 4 μg/ml | fungistatic not fungicidal | 0.06 µg/mL (≈ 0.174 µM) | growth score, MIC test ([1]; 0.125 μg/ml): I; growth score, MIC test ([1]; 0.250 μg/ml): I; growth score, MIC test ([1]; 0.50 μg/ml): I; growth score, MIC test ([1]; 1.0 μg/ml): I; growth score, MIC test ([1]; 2.0 μg/ml): I; growth score, MIC test ([1]; 4.0 μg/ml): I; growth score, MIC test ([2]; 0.125 μg/ml): I; growth score, MIC test ([2]; 0.250 μg/ml): I; growth score, MIC test ([2]; 0.50 μg/ml): I; growth score, MIC test ([2]; 1.0 μg/ml): I; growth score, MIC test ([2]; 2.0 μg/ml): I; growth score, MIC test ([2]; 4.0 μg/ml): I; growth score, MIC test ([3]; 0.125 μg/ml): I; growth score, MIC test ([3]; 0.250 μg/ml): I; growth score, MIC test ([3]; 0.50 μg/ml): I; growth score, MIC test ([3]; 1.0 μg/ml): I; growth score, MIC test ([3]; 2.0 μg/ml): I; growth score, MIC test ([3]; 4.0 μg/ml): I; growth score, MIC test ([3]; 8.0 μg/ml): I

From US7429396B2, “Antifungal composition, its fungicidal effect on pathogenic dermatophytes, and process for inhibiting growth of fungi” (Bio-Botanica, Inc., priority 2003, dated 2008)
